Patent publication US8952024B2, “Herbicidal pyrimidone derivatives” (E I du Pont de Nemours and Company, priority 2009, dated 2015)
Read-outs that look alike come from different tables or passages of the source.

Legend:
Type in all cases: in vivo
[1] = system: Italian ryegrass (Lolium multiflorum); assay: Test B pre-/postemergence plant response; conditions: Preemergence
Summary of the method: (§1)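 Test compounds, formulated in a non-phytotoxic solvent mixture with surfactant, are applied to the soil surface (loam and sand blend) right after seeding, or sprayed over plants at the 1- to 4-leaf stage grown in peat moss/vermiculite medium. After 13 to 15 days under glasshouse conditions, each species is scored visually from 0 (no effect) to 100 (complete control) against controls.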

[2] = system: yellow nutsedge (Cyperus esculentus); assay: Test B pre-/postemergence plant response
Summary of the method: as §1

[3] = system: downy bromegrass (Bromus tectorum); assay: Test B pre-/postemergence plant response; conditions: for pest or weed control at 31 g/ha: 31 g ai/ha, scale 0 to 100 (0 no effect, 100 complete control); for pest or weed control at 62 g/ha: 62 g ai/ha
Summary of the method: as §1

[4] = system: woolly cupgrass (Eriochloa villosa); assay: Test B pre-/postemergence plant response; conditions: for pest or weed control at 31 g/ha: 31 g ai/ha, scale 0 to 100 (0 no effect, 100 complete control); for pest or weed control at 62 g/ha: 62 g ai/ha
Summary of the method: as §1

[5] = system: goosegrass (Eleusine indica); assay: Test B pre-/postemergence plant response; conditions: for pest or weed control at 62 g/ha: 62 g ai/ha
Summary of the method: as §1

[6] = system: pigweed (Amaranthus retroflexus); assay: Test A pre-/postemergence plant response; conditions: Amaranthus retroflexus, 240 h; for pest or weed control at 125 g/ha: 125 g ai/ha; for pest or weed control at 500 g/ha: 500 g ai/ha
Summary of the method: (§2)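 Greenhouse pots of loam/sand received directed preemergence soil sprays or postemergence sprays (plants 2–10 cm, 1–2 leaf stage), compounds formulated in non-phytotoxic solvent with surfactant. Injury was rated visually versus untreated controls after about ten days on a 0 (no effect) to 100 (complete control) scale.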

[7] = system: barnyardgrass (Echinochloa crus-galli); assay: Test A pre-/postemergence plant response; conditions: Echinochloa crus-galli, 240 h; for pest or weed control at 125 g/ha: 125 g ai/ha; for pest or weed control at 500 g/ha: 500 g ai/ha
Summary of the method: as §2

[8] = Preemergence, 125 g ai/ha, 0 to 100 scale
[9] = Postemergence, 250 g ai/ha, scale 0 to 100

Cc1c(F)cccc1-n1c(-c2ccccc2)ncc(C(=O)C2=C(O)CCCC2=O)c1=O [Compound 47, 3-(3-fluoro-2-methylphenyl)-5-[(2-hydroxy-6-oxo-1-cyclohexen-1-yl)carbonyl]-2-phenyl-4(3H)-pyrimidinone]
pest or weed control at 250 g/ha ([1]; Lolium multiflorum, pre-emergence, 250 g ai/ha, 0 to 100 scale, read-out: Plant response rating, Ryegrass, Italian): 0% | pest or weed control at 31 g/ha ([1]; Lolium multiflorum, pre-emergence, 31 g ai/ha, scale 0 to 100 (0 no effect, 100 complete control), read-out: Plant response rating, Ryegrass, Italian): 0% | Ryegrass, Italian plant response rating ([1]; 125 g ai/ha, 0 to 100 scale): 0 | pest or weed control at 62 g/ha ([2]; Cyperus, post-emergence, Postemergence, 62 g ai/ha, scale 0 (no effect) to 100 (complete control), 13 to 15 days, read-out: Plant response rating, Nutsedge, Yellow): 65% | pest or weed control at 125 g/ha ([2]; Cyperus, post-emergence, Postemergence, 125 g ai/ha, visual rating after 13 to 15 days, scale 0 (no effect) to 100 (complete control)): 70% | pest or weed control at 250 g/ha ([2]; Cyperus, pre-emergence, 250 g ai/ha, Preemergence, 0 to 100 scale, read-out: Plant response rating, Nutsedge, Yellow): 90% | pest or weed control at 31 g/ha ([2]; Cyperus, pre-emergence, Preemergence, 31 g ai/ha, scale 0 to 100 (0 no effect, 100 complete control), read-out: Plant response rating, Nutsedge, Yellow): 45% | Nutsedge, Yellow plant response rating [2, 8]: 80 | pest or weed control at 31 g/ha ([3]; Bromus tectorum, post-emergence, Postemergence, read-out: Plant response rating, Bromegrass, Downy): 35% | pest or weed control at 62 g/ha ([3]; Bromus tectorum, post-emergence, Postemergence, scale 0 (no effect) to 100 (complete control), 13 to 15 days, read-out: Plant response rating, Bromegrass, Downy): 40% | pest or weed control at 125 g/ha ([3]; Bromus tectorum, post-emergence, Postemergence, 125 g ai/ha, visual rating after 13 to 15 days, scale 0 (no effect) to 100 (complete control)): 50% | pest or weed control at 250 g/ha ([3]; Bromus tectorum, pre-emergence, 250 g ai/ha, Preemergence, 0 to 100 scale, read-out: Plant response rating, Bromegrass, Downy): 10% | pest or weed control at 31 g/ha ([3]; Bromus tectorum, pre-emergence, Preemergence, read-out: Plant response rating, Bromegrass, Downy): 0% | pest or weed control at 62 g/ha ([3]; Bromus tectorum, pre-emergence, Preemergence, scale 0 to 100, 0 no effect, 100 complete control, read-out: Plant response rating, Bromegrass, Downy): 5% | Bromegrass, Downy plant response rating [3, 9]: 55 | Bromegrass, Downy plant response rating [3, 8]: 5 | pest or weed control at 31 g/ha ([4]; Eriochloa villosa, post-emergence, Postemergence, read-out: Plant response rating, Cupgrass, Woolly): 85% | pest or weed control at 62 g/ha ([4]; Eriochloa villosa, post-emergence, Postemergence, scale 0 (no effect) to 100 (complete control), 13 to 15 days, read-out: Plant response rating, Cupgrass, Woolly): 90% | pest or weed control at 125 g/ha ([4]; Eriochloa villosa, post-emergence, Postemergence, 125 g ai/ha, visual rating after 13 to 15 days, scale 0 (no effect) to 100 (complete control)): 90% | pest or weed control at 250 g/ha ([4]; Eriochloa villosa, pre-emergence, 250 g ai/ha, Preemergence, 0 to 100 scale, read-out: Plant response rating, Cupgrass, Woolly): 90% | pest or weed control at 31 g/ha ([4]; Eriochloa villosa, pre-emergence, Preemergence, read-out: Plant response rating, Cupgrass, Woolly): 0% | pest or weed control at 62 g/ha ([4]; Eriochloa villosa, pre-emergence, Preemergence, scale 0 to 100, 0 no effect, 100 complete control, read-out: Plant response rating, Cupgrass, Woolly): 45% | Cupgrass, Woolly plant response rating [4, 9]: 100 | Cupgrass, Woolly plant response rating [4, 8]: 75 | pest or weed control at 62 g/ha ([5]; Eleusine indica, post-emergence, Postemergence, scale 0 (no effect) to 100 (complete control), 13 to 15 days, read-out: Plant response rating, Goosegrass): 95% | pest or weed control at 125 g/ha ([5]; Eleusine indica, post-emergence, Postemergence, 125 g ai/ha, visual rating after 13 to 15 days, scale 0 (no effect) to 100 (complete control)): 95% | pest or weed control at 250 g/ha ([5]; Eleusine indica, pre-emergence, 250 g ai/ha, Preemergence, 0 to 100 scale, read-out: Plant response rating, Goosegrass): 100% | pest or weed control at 31 g/ha ([5]; Eleusine indica, pre-emergence, Preemergence, 31 g ai/ha, scale 0 to 100 (0 no effect, 100 complete control), read-out: Plant response rating, Goosegrass): 95% | pest or weed control at 62 g/ha ([5]; Eleusine indica, pre-emergence, Preemergence, scale 0 to 100, 0 no effect, 100 complete control, read-out: Plant response rating, Goosegrass): 100% | Goosegrass plant response rating [5, 9]: 98 | Goosegrass plant response rating [5, 8]: 100 | pest or weed control at 125 g/ha ([6]; post-emergence, Postemergence, visual injury, 0 to 100 scale (0 no effect, 100 complete control), approx. ten days, read-out: Pigweed plant response rating): 90% | pest or weed control at 500 g/ha ([6]; post-emergence, Postemergence, 0 to 100 scale, 0 = no effect, 100 = complete control, approx. ten days, read-out: Plant response rating, Pigweed): 100% | pest or weed control at 125 g/ha ([6]; pre-emergence, Preemergence, 0 to 100 scale, 0 = no effect, 100 = complete control, read-out: Plant response rating, Pigweed): 80% | pest or weed control at 500 g/ha ([6]; pre-emergence, Preemergence, visual injury, 0 to 100 scale (0 no effect, 100 complete control), approx. ten days, read-out: Plant response rating, Pigweed): 100% | pest or weed control at 125 g/ha ([7]; post-emergence, Postemergence, visual injury, 0 to 100 scale (0 no effect, 100 complete control), approx. ten days, read-out: Barnyardgrass plant response rating): 90% | pest or weed control at 500 g/ha ([7]; post-emergence, Postemergence, 0 to 100 scale, 0 = no effect, 100 = complete control, approx. ten days, read-out: Plant response rating, Barnyardgrass): 100% | pest or weed control at 125 g/ha ([7]; pre-emergence, Preemergence, 0 to 100 scale, 0 = no effect, 100 = complete control, read-out: Plant response rating, Barnyardgrass): 10% | pest or weed control at 500 g/ha ([7]; pre-emergence, Preemergence, visual injury, 0 to 100 scale (0 no effect, 100 complete control), approx. ten days, read-out: Plant response rating, Barnyardgrass): 90%
